pEC50: −log10 of the molar value.
target: T1, human Farnesoid X Receptor (FXR) ligand binding domain (GST-FXR LBD) (Homo sapiens, UniProt Q96RI1); experiment: Human GST-FXR LBD co-activator interaction assay (FXR HTRF assay); format: biochemical; conditions: GST-FXR LBD interaction with biotin-labeled SRC-1 peptide, FRET, response relative to GW4064, read-out: FXR coactivator interaction assay (HTRF)
T1 construct: purchased Invitrogen
T1 sequence (Q96RI1 193-472 isoform Q96RI1-2): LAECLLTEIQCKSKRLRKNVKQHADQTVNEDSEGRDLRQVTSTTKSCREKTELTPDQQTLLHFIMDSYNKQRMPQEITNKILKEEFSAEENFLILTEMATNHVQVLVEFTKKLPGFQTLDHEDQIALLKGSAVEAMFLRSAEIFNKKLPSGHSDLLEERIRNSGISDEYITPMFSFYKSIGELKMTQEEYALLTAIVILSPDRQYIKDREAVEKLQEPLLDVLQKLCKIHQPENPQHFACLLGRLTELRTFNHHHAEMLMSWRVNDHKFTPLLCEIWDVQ
Text: Human GST-FXR LBD Co-Activator Interaction Assay
The FXR HTRF assay is a biochemical assay measuring the interaction between FXR and a coactivator protein (SRC1). The ligand-induced interaction with a coactivator protein is a critical step in transcriptional activation by FXR. Thus, this is an assay designed to measure FXR agonist activity of the test compounds.
Recombinant human Farnesoid X Receptor (FXR) ligand binding domain (amino acids 193-472) fused to glutathione S-transferase (GST) purified protein (GST-FXR LBD) was purchased (Invitrogen). The ligand-dependent interaction between GST-FXR LBD and a peptide derived from Steroid Receptor Coactivator-1 (SRC-1) was monitored by Fluorescence Resonance Energy Transfer (FRET). […] Test compounds (in DMSO solution) and detection reagents (anti-GST-Cryptate labeled antibody and Streptavidin-XL665 conjugate; CisBio) were added in assay buffer containing 50 mM KF. Plates are incubated at room temperature in the dark for 2.5 hrs before reading on an Envision (PerkinElmer) at 665 nm and 590 nm. The HTRF assay results were calculated from the 665 nm/590 nm ratio (ratio=(A665 nm/A590 nm)×10^4) and expressed in Delta F %=(Ratiosample−Rationegative)/Rationegative×100.
A negative control (without Streptavidin-XL665) was run with each assay and represented the background fluorescence. A reference FXR agonist, (E)-3-(2-chloro-4-((3-(2,6-dichlorophenyl)-5-isopropylisoxazol-4-yl)methoxy)styryl)benzoic acid (Compound GW4064), was included in each experiment as positive control. The efficacy of each test compound was compared to that of GW4064. At each concentration, the relative activity of the test compound was expressed as Response %=(Rsample−RDMSO)/(Rpositive−RDMSO), where Rsample is the HTRF response (expressed in Delta F %) for the test compound, Rpositive is the maximal response for GW4064 at saturating concentrations, and RDMSO is the response for DMSO control. The EC50 values were calculated using GraphPad Prism (GraphPad Software) using non-linear regression curve fit (log(agonist) vs. response-variable slope (four parameters)).

pEC50	Compound
8.46	Cn1nc(C(=O)N(Cc2ccc(C(=O)O)cc2)Cc2cccc(F)c2)c2c1-c1cc(Cl)ccc1OC2 [Compound 95, 4-((8-chloro-N-(3-fluorobenzyl)-1-methyl-1,4-dihydrochromeno[4,3-c]pyrazole-3-carboxamido)methyl)benzoic acid]
7.70	Cn1nc(C(=O)N(CCNc2cc(C(=O)O)ccc2F)Cc2cccc(F)c2)c2c1-c1cc(F)c(F)cc1OC2 [Compound 73, 3-((2-(7,8-difluoro-N-(3-fluorobenzyl)-1-methyl-1,4-dihydrochromeno[4,3-c]pyrazole-3-carboxamido)ethyl)amino)-4-fluorobenzoic acid]
7.89	Cn1nc(C(=O)N(Cc2ccccc2F)Cc2ccc(C(=O)O)cc2F)c2c1-c1cc(Cl)ccc1OC2 [Compound 93, 4-((8-chloro-N-(2-fluorobenzyl)-1-methyl-1,4-dihydrochromeno[4,3-c]pyrazole-3-carboxamido)methyl)-3-fluorobenzoic acid]
9.22	Cn1nc(C(=O)N(CC(=O)Nc2cc(C(=O)O)ccc2F)Cc2ccccc2F)c2c1-c1cc(Cl)ccc1OC2 [Compound 64, 3-(2-(8-chloro-N-(2-fluorobenzyl)-1-methyl-1,4-dihydrochromeno[4,3-c]pyrazole-3-carboxamido)acetamido)-4-fluorobenzoic Acid]
8.59	Cn1nc(C(=O)N(CCNc2cc(C(=O)O)ccc2F)Cc2ccccc2)c2c1-c1cc(Cl)ccc1OC2 [Compound 72, 3-((2-(N-benzyl-8-chloro-1-methyl-1,4-dihydrochromeno[4,3-c]pyrazole-3-carboxamido)ethyl)amino)-4-fluorobenzoic acid]
7.68	Cn1nc(C(=O)N(CCOc2c(F)cc(C(=O)O)cc2F)Cc2ccccc2)c2c1-c1cc(F)ccc1OC2 [Compound 54, 4-(2-(N-benzyl-8-fluoro-1-methyl-1,4-dihydrochromeno[4,3-c]pyrazole-3-carboxamido)ethoxy)-3,5-difluorobenzoic acid]
7.52	Cn1nc(C(=O)N(CCOc2ccc(C(=O)O)cc2F)Cc2ccccc2)c2c1-c1cc(F)c(F)cc1OC2 [Compound 57, 4-(2-(N-benzyl-7,8-difluoro-1-methyl-1,4-dihydrochromeno[4,3-c]pyrazole-3-carboxamido)ethoxy)-3-fluorobenzoic acid]
8.19	Cn1nc(C(=O)N(Cc2ccccc2)Cc2ccc(C(=O)O)c(F)c2)c2c1-c1cc(Cl)ccc1OC2 [Compound 91, 4-((N-benzyl-8-chloro-1-methyl-1,4-dihydrochromeno[4,3-c]pyrazole-3-carboxamido)methyl)-2-fluorobenzoic acid]
7.54	Cc1nc(C(=O)O)ccc1CN(Cc1cccc(F)c1)C(=O)c1nn(C)c2c1COc1ccc(Cl)cc1-2 [Compound 99, 5-((8-chloro-N-(3-fluorobenzyl)-1-methyl-1,4-dihydrochromeno[4,3-c]pyrazole-3-carboxamido)methyl)-6-methylpicolinic acid]
7.77	Cn1nc(C(=O)N(Cc2ccc(C(=O)O)c(F)c2)Cc2ccccc2F)c2c1-c1cc(Cl)ccc1OC2 [Compound 97, 4-((8-chloro-N-(2-fluorobenzyl)-1-methyl-1,4-dihydrochromeno[4,3-c]pyrazole-3-carboxamido)methyl)-2-fluorobenzoic acid]
7.46	Cc1cccc(CN(Cc2ccc(C(=O)O)cc2F)C(=O)c2nn(C)c3c2COc2ccc(F)cc2-3)c1 [Compound 85, 3-fluoro-4-((8-fluoro-1-methyl-N-(3-methylbenzyl)-1,4-dihydrochromeno[4,3-c]pyrazole-3-carboxamido)methyl)benzoic acid]
7.92	Cc1cc(F)cc(CN(Cc2ccc(C(=O)O)cc2)C(=O)c2nn(C)c3c2COc2ccc(Cl)cc2-3)c1 [Compound 82, 4-((8-chloro-N-(3-fluoro-5-methylbenzyl)-1-methyl-1,4-dihydrochromeno[4,3-c]pyrazole-3-carboxamido)methyl)benzoic acid]
8.49	Cc1cc(C(=O)O)ccc1OCCN(Cc1ccccc1F)C(=O)c1nn(C)c2c1COc1ccc(Cl)cc1-2 [Compound 46]

The next lines start with the compound.

Compound	pEC50
Cn1nc(C(=O)N(CC(=O)Nc2cccc(C(=O)O)c2)Cc2ccccc2)c2c1-c1cc(Cl)ccc1OC2 [Compound 31, 3-(2-(N-benzyl-8-chloro-1-methyl-1,4-dihydrochromeno[4,3-c]pyrazole-3-carboxamido)acetamido)benzoic acid]	9.33
CC(CNC(=O)CN(Cc1ccccc1F)C(=O)c1nn(C)c2c1COc1ccc(Cl)cc1-2)C(=O)O (centres unmarked) [Compound 40, 3-(2-(8-chloro-N-(2-fluorobenzyl)-1-methyl-1,4-dihydrochromeno[4,3-c]pyrazole-3-carboxamido)acetamido)-2-methylpropanoic Acid]	8.07
Cn1nc(C(=O)N(CC(=O)Nc2cc(C(=O)O)ccc2F)Cc2cccc(F)c2)c2c1-c1ccccc1OC2 [Compound 27, 4-fluoro-3-(2-(N-(3-fluorobenzyl)-1-methyl-1,4-dihydrochromeno[4,3-c]pyrazole-3-carboxamido)acetamido)benzoic acid]	8.85
Cn1nc(C(=O)N(CC(=O)Nc2cc(C(=O)O)ccc2F)Cc2ccccc2)c2c1-c1cc(Cl)ccc1OC2 [Compound 29, 3-(2-(N-benzyl-8-chloro-1-methyl-1,4-dihydrochromeno[4,3-c]pyrazole-3-carboxamido)acetamido)-4-fluorobenzoic acid]	9.17
Cn1nc(C(=O)N(CC(=O)Nc2cc(F)cc(C(=O)O)c2)Cc2ccccc2F)c2c1-c1cc(Cl)ccc1OC2 [Compound 38, 3-(2-(8-chloro-N-(2-fluorobenzyl)-1-methyl-1,4-dihydrochromeno[4,3-c]pyrazole-3-carboxamido)acetamido)-5-fluorobenzoic Acid]	8.59
Cn1nc(C(=O)N(CC(=O)Nc2cc(C(=O)O)ccc2F)Cc2ccccc2F)c2c1-c1cc(F)c(F)cc1OC2 [Compound 17, 3-(2-(7,8-difluoro-N-(2-fluorobenzyl)-1-methyl-1,4-dihydrochromeno[4,3-c]pyrazole-3-carboxamido)acetamido)-4-fluorobenzoic acid]	9.00
Cn1nc(C(=O)N(CC(=O)Nc2cccc(C(=O)O)c2)Cc2ccccc2F)c2c1-c1cc(F)cc(F)c1OC2 [Compound 11, 3-(2-(6,8-difluoro-N-(2-fluorobenzyl)-1-methyl-1,4-dihydrochromeno[4,3-c]pyrazole-3-carboxamido)acetamido)benzoic acid]	8.48
Cn1nc(C(=O)N(CC(=O)Nc2cc(C(=O)O)ccc2F)Cc2ccccc2)c2c1-c1ccccc1OC2 [Compound 33, 3-(2-(N-benzyl-1-methyl-1,4-dihydrochromeno[4,3-c]pyrazole-3-carboxamido)acetamido)-4-fluorobenzoic acid]	8.82
Cn1nc(C(=O)N(CC(=O)Nc2cccc(C(=O)O)c2)Cc2ccccc2F)c2c1-c1cc(Cl)cc(F)c1OC2 [Compound 15, 3-(2-(8-chloro-6-fluoro-N-(2-fluorobenzyl)-1-methyl-1,4-dihydrochromeno[4,3-c]pyrazole-3-carboxamido)acetamido)benzoic acid]	8.65
Cn1nc(C(=O)N(CC(=O)Nc2cc(C(=O)O)ccc2F)Cc2ccccc2F)c2c1-c1cc(Cl)ccc1OCC2 [Compound 34, 3-(2-(9-chloro-N-(2-fluorobenzyl)-1-methyl-4,5-dihydro-1H-benzo[2,3]oxepino[4,5-c]pyrazole-3-carboxamido)acetamido)-4-fluorobenzoic acid]	8.68
Cc1cccc(CN(CC(=O)Nc2cc(C(=O)O)ccc2F)C(=O)c2nn(C)c3c2COc2ccc(F)cc2-3)c1 [Compound 20, 4-fluoro-3-(2-(8-fluoro-1-methyl-N-(3-methylbenzyl)-1,4-dihydrochromeno[4,3-c]pyrazole-3-carboxamido)acetamido)benzoic acid]	9.30
Cn1nc(C(=O)N(CCOc2ccc(C(=O)O)cc2F)Cc2ccccc2F)c2c1-c1cc(Cl)ccc1OC2 [Compound 43, 4-(2-(8-chloro-N-(2-fluorobenzyl)-1-methyl-1,4-dihydrochromeno[4,3-c]pyrazole-3-carboxamido)ethoxy)-3-fluorobenzoic Acid]	7.74
Cn1nc(C(=O)N(CC(=O)Nc2cccc(C(=O)O)c2)Cc2ccccc2F)c2c1-c1cc(Cl)ccc1CC2 [Compound 24, 3-(2-(8-chloro-N-(2-fluorobenzyl)-1-methyl-4,5-dihydro-1H-benzo[g]indazole-3-carboxamido)acetamido)benzoic acid]	8.49

Source: patent US11021446B2 (NOVARTIS AG, priority 2013, dated 2021)
